According to US20200399318A1, “PEPTIDE INHIBITORS OF PHOSPHOGLYCERATE MUTASE AND METHODS OF USE” (priority 2016, published 2020):
Where a SMILES comes first, the peptide text is derived from it. Bridges are numbered along the chain shown (N, C = ends). [ ]: non-standard residue; d: D form.

What was measured:
[1] = target: B. malayi iPGM (Brugia malayi, UniProt Q4VWF8); experiment: biochemical
[2] = target: E. coli iPGM (Escherichia coli, UniProt P37689); experiment: biochemical
[3] = system: D. immitis iPGM; assay type: biochemical, Dirofilaria immitis
[4] = target: O. volvulus iPGM (Onchocerca volvulus, UniProt I6LDA6); experiment: biochemical
Sequence of O. volvulus iPGM (I6LDA6 whole entry, looked up): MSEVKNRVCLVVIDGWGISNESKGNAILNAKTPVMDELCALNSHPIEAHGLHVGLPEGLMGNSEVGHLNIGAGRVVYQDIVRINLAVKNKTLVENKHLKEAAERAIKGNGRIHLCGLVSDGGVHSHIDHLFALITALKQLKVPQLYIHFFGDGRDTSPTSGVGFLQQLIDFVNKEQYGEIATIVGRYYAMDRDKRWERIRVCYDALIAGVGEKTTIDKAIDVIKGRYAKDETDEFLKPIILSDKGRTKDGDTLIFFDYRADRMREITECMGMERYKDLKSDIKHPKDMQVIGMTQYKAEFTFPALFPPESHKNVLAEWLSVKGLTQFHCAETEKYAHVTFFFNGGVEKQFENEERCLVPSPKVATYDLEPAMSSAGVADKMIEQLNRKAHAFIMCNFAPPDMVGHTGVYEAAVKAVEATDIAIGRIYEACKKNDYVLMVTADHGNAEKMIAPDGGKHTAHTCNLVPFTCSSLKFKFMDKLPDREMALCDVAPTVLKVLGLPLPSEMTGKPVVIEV

[5] = read-out: B. malayi iPGM Max Inhibition
[6] = read-out: E. coli iPGM Max Inhibition
[7] = read-out: O. volvulus iPGM Max Inhibition

Sequence of E. coli iPGM (P37689 whole entry, looked up): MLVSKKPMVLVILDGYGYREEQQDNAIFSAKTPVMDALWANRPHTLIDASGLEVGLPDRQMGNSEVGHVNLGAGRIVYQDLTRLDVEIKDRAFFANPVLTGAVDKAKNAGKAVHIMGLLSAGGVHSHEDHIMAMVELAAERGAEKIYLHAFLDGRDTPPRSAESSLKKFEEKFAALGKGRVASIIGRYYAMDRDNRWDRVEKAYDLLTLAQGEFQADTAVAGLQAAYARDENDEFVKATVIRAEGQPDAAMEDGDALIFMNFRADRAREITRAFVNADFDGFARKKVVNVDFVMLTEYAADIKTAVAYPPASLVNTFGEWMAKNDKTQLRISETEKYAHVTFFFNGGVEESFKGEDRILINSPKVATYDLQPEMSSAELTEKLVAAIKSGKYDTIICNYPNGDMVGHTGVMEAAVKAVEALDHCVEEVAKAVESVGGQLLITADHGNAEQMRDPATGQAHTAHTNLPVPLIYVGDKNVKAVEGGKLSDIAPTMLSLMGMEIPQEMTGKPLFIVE
Sequence of B. malayi iPGM (Q4VWF8 whole entry, looked up): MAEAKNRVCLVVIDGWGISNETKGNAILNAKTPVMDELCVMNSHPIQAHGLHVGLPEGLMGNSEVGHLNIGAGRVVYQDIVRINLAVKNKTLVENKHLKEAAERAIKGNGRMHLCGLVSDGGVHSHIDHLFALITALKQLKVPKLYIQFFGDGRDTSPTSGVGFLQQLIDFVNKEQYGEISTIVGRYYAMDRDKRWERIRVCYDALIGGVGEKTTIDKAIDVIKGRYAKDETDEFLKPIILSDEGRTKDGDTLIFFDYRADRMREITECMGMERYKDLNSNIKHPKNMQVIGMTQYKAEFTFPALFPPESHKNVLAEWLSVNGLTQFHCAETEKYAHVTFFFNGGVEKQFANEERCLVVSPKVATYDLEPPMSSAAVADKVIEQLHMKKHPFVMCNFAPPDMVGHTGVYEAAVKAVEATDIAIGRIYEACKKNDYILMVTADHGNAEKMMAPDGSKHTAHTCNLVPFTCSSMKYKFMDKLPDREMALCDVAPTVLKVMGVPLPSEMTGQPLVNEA

CC[C@H](C)[C@@H]1NC(=O)[C@H](CCC(=O)O)NC(=O)[C@@H]2CCCN2C(=O)[C@H](C)NC(=O)[C@H](CC(N)=O)NC(=O)[C@@H]2CCCN2C(=O)[C@H](Cc2c[nH]c3ccccc23)NC(=O)[C@H](CO)NC(=O)[C@@H](Cc2ccc(O)cc2)NC(=O)CSC[C@@H](C(=O)N[C@@H](CS)C(=O)NCC(N)=O)NC(=O)[C@H](CCCCN)NC(=O)[C@H](Cc2c[nH]c3ccccc23)NC1=O [Bm-1] ({CH2CO}-[dY]SWPNAPEIWKCCG-NH2; thioether N-12)
pIC50 B. malayi iPGM [1]: 5.89 | Emax [1, 5]: 82.8 ± 0.9% | pIC50 E. coli iPGM [2]: 5.31 | Emax [2, 6]: 60.6 ± 9% | D. immitis iPGM Max Inhibition [3]: −85.9 ± 0.2 | O. volvulus iPGM PIC50, M [4]: 5.88 ± 0.53 M | Emax [4, 7]: 82.1 ± 5.4%

CC(C)C[C@@H]1NC(=O)[C@@H](Cc2ccc(O)cc2)NC(=O)CSC[C@@H](C(=O)N[C@@H](CC(N)=O)C(=O)N[C@H](C(=O)N[C@@H](CS)C(=O)NCC(N)=O)[C@@H](C)O)NC(=O)[C@H](CC(N)=O)NC(=O)[C@@H]2CCCN2C(=O)[C@H](Cc2c[nH]c3ccccc23)NC(=O)[C@H](CCC(=O)O)NC1=O [Bm-4] ({CH2CO}-[dY]LEWPNCNTCG-NH2; thioether N-7)
pIC50 B. malayi iPGM [1]: 6.24 | Emax [1, 5]: 86.3 ± 1.4% | E. coli iPGM PIC50, M [2]: 5.56 ± 0.16 M | Emax [2, 6]: 76.3 ± 8.3% | D. immitis iPGM Max Inhibition [3]: −88.1 ± 0.8 | pIC50 O. volvulus iPGM [4]: 6.10 | Emax [4, 7]: 85.7 ± 6.5%

CC(C)C[C@@H]1NC(=O)[C@@H](Cc2ccc(O)cc2)NC(=O)CSC[C@@H](C(=O)N[C@@H](CC(N)=O)C(=O)N[C@H](C(=O)N[C@@H](CS)C(N)=O)[C@@H](C)O)NC(=O)[C@H](CC(N)=O)NC(=O)[C@@H]2CCCN2C(=O)[C@H](Cc2c[nH]c3ccccc23)NC(=O)[C@H](CCC(=O)O)NC1=O [Bm-4a] ({CH2CO}-[dY]LEWPNCNTC-NH2; thioether N-7)
B. malayi iPGM PIC50, M [1]: 6.31 ± 0.29 M | Emax [1, 5]: 88 ± 0.4% | E. coli iPGM PIC50, M [2]: 5.58 ± 0.19 M | Emax [2, 6]: 78.3 ± 3.4% | D. immitis iPGM Max Inhibition [3]: −90.5 ± 1.5 | O. volvulus iPGM PIC50, M [4]: 6.14 ± 0.62 M | Emax [4, 7]: 87.8 ± 4.1%

CC(C)C[C@@H]1NC(=O)[C@@H](Cc2ccc(O)cc2)NC(=O)CSC[C@@H](C(=O)N[C@@H](CO)C(=O)N[C@H](C(=O)N[C@@H](CS)C(=O)NCC(N)=O)[C@@H](C)O)NC(=O)[C@H](CC(N)=O)NC(=O)[C@@H]2CCCN2C(=O)[C@H](Cc2c[nH]c3ccccc23)NC(=O)[C@H](CC(=O)O)NC1=O [Bm-5] ({CH2CO}-[dY]LDWPNCSTCG-NH2; thioether N-7)
pIC50 B. malayi iPGM [1]: 6.16 | Emax [1, 5]: 84.7 ± 1.2% | E. coli iPGM PIC50, M [2]: 5.54 ± 0.20 M | Emax [2, 6]: 74.3 ± 9.5% | D. immitis iPGM Max Inhibition [3]: −87.1 ± 3.2 | O. volvulus iPGM PIC50, M [4]: 5.99 ± 0.69 M | Emax [4, 7]: 83.1 ± 7.3%

C[C@@H](O)[C@H](NC(=O)[C@H](CO)NC(=O)[C@@H]1CSCC(=O)N[C@H](Cc2ccc(O)cc2)C(=O)N2CCC[C@H]2C(=O)N[C@@H](CCC(=O)O)C(=O)N[C@@H](Cc2c[nH]c3ccccc23)C(=O)N2CCC[C@H]2C(=O)N[C@@H](CC(N)=O)C(=O)N1)C(=O)N[C@@H](CS)C(=O)NCC(N)=O [Bm-6] ({CH2CO}-[dY]PEWPNCSTCG-NH2; thioether N-7)
pIC50 B. malayi iPGM [1]: 6.16 | Emax [1, 5]: 86.8 ± 0.6% | E. coli iPGM PIC50, M [2]: 5.55 ± 0.07 M | Emax [2, 6]: 77.4 ± 4.3% | D. immitis iPGM Max Inhibition [3]: −90.2 ± 1.2 | O. volvulus iPGM PIC50, M [4]: 6.08 ± 0.53 M | Emax [4, 7]: 86 ± 3.2%

CC(C)[C@@H]1NC(=O)[C@H](C)NC(=O)[C@@H](Cc2ccc(O)cc2)NC(=O)CSC[C@@H](C(=O)N[C@@H](CCCNC(=N)N)C(=O)N[C@H](C(=O)N[C@@H](CS)C(=O)NCC(N)=O)[C@@H](C)O)NC(=O)[C@H](CC(N)=O)NC(=O)[C@@H]2CCCN2C(=O)[C@H](Cc2c[nH]c3ccccc23)NC1=O [Bm-7] ({CH2CO}-[dY]AVWPNCRTCG-NH2; thioether N-7)
pIC50 B. malayi iPGM [1]: 5.28 | Emax [1, 5]: 74 ± 10.1% | E. coli iPGM PIC50, M [2]: 5.12 ± 0.09 M | Emax [2, 6]: 69.7 ± 12.3% | D. immitis iPGM Max Inhibition [3]: −83.1 ± 9.7 | O. volvulus iPGM PIC50, M [4]: 5.37 ± 0.52 M | Emax [4, 7]: 78 ± 19.9%

CC(C)C[C@H](NC(=O)[C@H](Cc1ccc(O)cc1)NC(=O)[C@@H]1CSCC(=O)N[C@H](Cc2ccc(O)cc2)C(=O)N[C@@H](CC(=O)O)C(=O)N[C@@H](Cc2ccc(O)cc2)C(=O)N2CCC[C@H]2C(=O)NCC(=O)N[C@@H](CC(=O)O)C(=O)N[C@@H](Cc2c[nH]cn2)C(=O)N1)C(=O)N[C@@H](Cc1ccc(O)cc1)C(=O)NCC(=O)N[C@H](C(=O)N[C@@H](CS)C(=O)NCC(N)=O)[C@@H](C)O [Ce-1]
Emax [1, 5]: 94 ± 3.4% | Emax [2, 6]: 96.5 ± 4.2% | Emax [4, 7]: 95.4 ± 2.6%

CC(C)C[C@H](NC(=O)[C@H](Cc1ccc(O)cc1)NC(=O)[C@@H]1CSCC(=O)N[C@H](Cc2ccc(O)cc2)C(=O)N[C@@H](CC(=O)O)C(=O)N[C@@H](Cc2ccc(O)cc2)C(=O)N2CCC[C@H]2C(=O)NCC(=O)N[C@@H](CC(=O)O)C(=O)N[C@@H](Cc2ccc(O)cc2)C(=O)N1)C(=O)N[C@@H](Cc1ccc(O)cc1)C(=O)NCC(=O)N[C@H](C(=O)N[C@@H](CO)C(=O)NCC(N)=O)[C@@H](C)O [Ce-2S]
Emax [1, 5]: 97.7 ± 0.6% | inhibition at 0.0005 µM [1, 5]: 77.1 ± 7.5% | Emax [2, 6]: 105 ± 2.5% | inhibition at 0.0005 µM [2, 6]: 68.1 ± 8.9% | Emax [4, 7]: 97 ± 1.6% | inhibition at 0.0005 µM [4, 7]: 69.8 ± 9.3%

CC(C)C[C@H](NC(=O)[C@H](Cc1ccc(O)cc1)NC(=O)[C@@H]1CSCC(=O)N[C@H](Cc2ccc(O)cc2)C(=O)N[C@@H](CC(=O)O)C(=O)N[C@@H](Cc2ccc(O)cc2)C(=O)N2CCC[C@H]2C(=O)NCC(=O)N[C@@H](CC(=O)O)C(=O)N[C@@H](Cc2ccc(O)cc2)C(=O)N1)C(=O)N[C@@H](Cc1ccc(O)cc1)C(=O)NCC(=O)N[C@H](C(N)=O)[C@@H](C)O [Ce-2b]
Emax [1, 5]: 91.8 ± 5.4% | Emax [2, 6]: 95.3 ± 9% | Emax [4, 7]: 80.1 ± 2.1%

CC(C)C[C@H](NC(=O)[C@H](Cc1ccc(O)cc1)NC(=O)[C@@H]1CSCC(=O)N[C@H](Cc2ccc(O)cc2)C(=O)N[C@@H](CC(=O)O)C(=O)N[C@@H](Cc2ccc(O)cc2)C(=O)N2CCC[C@H]2C(=O)NCC(=O)N[C@@H](CC(=O)O)C(=O)N[C@@H](Cc2ccc(O)cc2)C(=O)N1)C(=O)N[C@@H](Cc1ccc(O)cc1)C(=O)NCC(N)=O [Ce-2c]
Emax [1, 5]: 88.2% | Emax [2, 6]: 89.1% | Emax [4, 7]: 78.4%

CC(C)C[C@H](NC(=O)[C@H](Cc1ccc(O)cc1)NC(=O)[C@@H]1CSCC(=O)N[C@H](Cc2ccc(O)cc2)C(=O)N[C@@H](CC(=O)O)C(=O)N[C@@H](Cc2ccc(O)cc2)C(=O)N2CCC[C@H]2C(=O)NCC(=O)N[C@@H](CC(=O)O)C(=O)N[C@@H](Cc2ccc(O)cc2)C(=O)N1)C(N)=O [Ce-2e] ({CH2CO}-[dY]DYPGDYCYL-NH2; thioether N-8)
Emax [1, 5]: 82.7 ± 6.1% | Emax [2, 6]: 94.5 ± 9% | Emax [4, 7]: 55.5 ± 1.4%

NC(=O)[C@H](Cc1ccc(O)cc1)NC(=O)[C@@H]1CSCC(=O)N[C@H](Cc2ccc(O)cc2)C(=O)N[C@@H](CC(=O)O)C(=O)N[C@@H](Cc2ccc(O)cc2)C(=O)N2CCC[C@H]2C(=O)NCC(=O)N[C@@H](CC(=O)O)C(=O)N[C@@H](Cc2ccc(O)cc2)C(=O)N1 [Ce-2f] ({CH2CO}-[dY]DYPGDYCY-NH2; thioether N-8)
Emax [1, 5]: 14.8% | Emax [2, 6]: 79.6% | Emax [4, 7]: -4.3%

CC[C@H](C)[C@@H]1NC(=O)[C@H](CCCNC(=N)N)NC(=O)[C@H](Cc2ccccc2)NC(=O)[C@@H]2CCCN2C(=O)[C@H](CC(N)=O)NC(=O)[C@H](C)NC(=O)[C@H](CC(C)C)NC(=O)[C@H]([C@@H](C)O)NC(=O)[C@H]([C@@H](C)CC)NC(=O)[C@H](Cc2ccc(O)cc2)NC(=O)CSC[C@@H](C(=O)NCC(N)=O)NC(=O)[C@H](Cc2c[nH]cn2)NC(=O)[C@H](CC(C)C)NC1=O [Ce-3] ({CH2CO}-YITLANPFRILHCG-NH2; thioether N-13)
Emax [1, 5]: 13.3 ± 2% | E. coli iPGM PIC50, M [2]: 6.27 ± 0.10 M | Emax [2, 6]: 91.4 ± 1.3% | D. immitis iPGM Max Inhibition [3]: −30.1 ± 32.2 | O. volvulus iPGM PIC50, M [4]: 5.26 ± 0.18 M | Emax [4, 7]: 22.9 ± 30.8%

CC[C@H](C)[C@@H]1NC(=O)[C@H](CCCNC(=N)N)NC(=O)[C@H](Cc2ccccc2)NC(=O)[C@@H]2CCCN2C(=O)[C@H](CC(N)=O)NC(=O)[C@H](C)NC(=O)[C@H](CC(C)C)NC(=O)[C@H]([C@@H](C)O)NC(=O)[C@H]([C@@H](C)O)NC(=O)[C@H](Cc2ccc(O)cc2)NC(=O)CSC[C@@H](C(=O)NCC(N)=O)NC(=O)[C@H](Cc2c[nH]cn2)NC(=O)[C@H](CC(C)C)NC1=O [Ce-4] ({CH2CO}-YTTLANPFRILHCG-NH2; thioether N-13)
Emax [1, 5]: 2.9 ± 3.3% | Emax [2, 6]: 44.3 ± 1.9% | D. immitis iPGM Max Inhibition [3]: −22.1 ± 35.5 | O. volvulus iPGM PIC50, M [4]: 5.37 ± 0.14 M | Emax [4, 7]: 23 ± 35.7%

CC(=O)N[C@H](Cc1ccc(O)cc1)C(=O)N[C@@H](CC(=O)O)C(=O)N[C@@H](Cc1ccc(O)cc1)C(=O)N1CCC[C@H]1C(=O)NCC(=O)N[C@@H](CC(=O)O)C(=O)N[C@@H](Cc1ccc(O)cc1)C(=O)N[C@@H](CO)C(=O)N[C@@H](Cc1ccc(O)cc1)C(=O)N[C@@H](CC(C)C)C(=O)N[C@@H](Cc1ccc(O)cc1)C(=O)NCC(=O)N[C@H](C(=O)N[C@@H](CS)C(=O)NCC(N)=O)[C@@H](C)O [Ce-L2] (Ac-[dY]DYPGDYSYLYGTCG-NH2)
B. malayi iPGM PIC50, M [1]: 4.89 ± 0.21 M | Emax [1, 5]: 48.2 ± 18.2% | pIC50 E. coli iPGM [2]: 5.88 | Emax [2, 6]: 95.1 ± 5.2% | D. immitis iPGM Max Inhibition [3]: −44 ± 22.6 | Emax [4, 7]: 40.2 ± 27.6%
